Like-named read-outs stand apart in the source and are kept apart here. Marks after values point to notes of the source that are not given here.
How the values were obtained:
[1] = Non-specific binding in S9 fractions of mouse liver, kidney and pancreas homogenates, rapid equilibrium dialysis; format: in vitro ADME; settings: for fraction unbound at 4 h, 50 μM: pH 7.4, 37 °C, mean ± SD (n = 3); for unbound (free) portion, range over liver, kidney and pancreas: range over the studied mouse tissues
Method: The unbound fractions of FA, D1, and D2 were determined in the S9 subcellular fractions of the mouse liver, kidneys, and pancreas using rapid equilibrium dialysis (RED) plates (Thermo Fisher Scientific, Inc., Waltham, MA, USA). Briefly, the studied compounds were spiked at a 50 μM concentration into 100 μL of mouse homogenate S9 subcellular fraction and transferred to the reaction chamber. Homogenate dilutions were 1:4 (w/v) for the liver and kidney, and 1:20 (w/v) for the pancreas. A total of 350 μL of TBS (pH 7.4) buffer was added to the buffer chamber of the RED plate. The dialysis plate was incubated at 37 °C with shaking for 4 h. Samples of 50 μL were collected from both the reaction and buffer chambers, and equal amounts of buffer and S9 fraction were added to the collected samples, respectively, to yield identical sample matrices. The proteins were precipitated by diluting samples with 100 μL of ice-cold acetonitrile. Samples were centrifuged at 12 000 × g for 10 min, and the supernatants were collected for HPLC analysis.
The unbound fraction (fu,tissue) of the FA and its derivatives was calculated using eq 1 [drawing 1] 1 where D is the dilution factor of studied tissue homogenate, and fu,homogenate is the distribution ratio of the studied compound measured in the reaction and buffer chambers within the equilibrium dialysis assay.[29]

human plasma = test: Coagulation parameters (PT, INR, APTT, TT) in human plasma
Method: To assess the safety of the LAT1 derivatives in the human blood circulation system, the basic coagulation parameters, prothrombin time (PT), activated partial thromboplastin time (APTT), thrombin time (TT), and international normalized ratio (INR) were determined from human plasma in the presence of FA, D1, and D2. The parameters were studied using a coagulometer (CoagChrom-3003 Bio-Ksel, Grudziądz, Poland), with the previously described methods.[25],[31] The following reagents were used in the basic coagulation studies: Bio-Ksel System APTT reagent and calcium chloride, Bio-Ksel PT plus reagent (thromboplastin and solvent), and thrombin (3.0 UNIH/mL), (Bio-Ksel, Grudziądz, Poland). The experiments were performed using citrated human plasma. Control samples consisting of drug solvents [distilled water and methanol mixture (1:2 v/v)] were conducted. The methods were validated using normal plasma (Bio-Ksel, Grudziądz, Poland). Coefficients of variability (CV) were counted (n = 5): CV(PT) = 5.34%, CV(APTT) = 2.61%, CV(TT) = 1.82%. Following reference values for each test were applied: PT: 9.7–14.6 s; APTT: 26.7–40.0 s; and TT: 14.0–18.0 s for 3.0 UNIH/mL of thrombin.

[2] = mouse plasma, equilibrium dialysis, 4 h incubation, n = 2; cited from earlier work
[3] = RBC lysis assay (hemolysis); format: cell-based; settings: 2% erythrocyte (RBC) suspension, human RBCs, 37 °C, Triton X = 100%, control 2.08 ± 0.15%, read-out: hemolysis rate
Method: To further evaluate the safety of derivatives in human blood, the effects of FA, D1, and D2 on hemolysis were studied using a previously described protocol.[31] Shortly, freshly collected erythrocytes were washed three times with 1 mL of 0.9% saline (Sigma-Aldrich, Germany). Subsequently, 2% RBC suspension was prepared by diluting 1 mL of erythrocytes in 50 mL of 0.9% saline. FA, D1, and D2 (1–100 μM) were incubated with the RBC suspension at 37 °C for 1 h. Additionally, negative controls containing 0.9% NaCl and positive controls with Triton X-100 (Polish Chemical Reagents, Poland) were studied. After incubation, the samples were centrifuged at 3 000 rpm for 10 min, and the absorbance values were measured from the collected supernatants at the wavelength of 550 nm. Samples with Triton X (positive control) represented 100% hemolysis. Results of the studies are presented as a percentage of released hemoglobin. The counted CV was 8.1% (n = 5). Additionally, the influence of FA and its derivatives (25–100 μM) on RBC morphology was studied using a phase contrast Opta-Tech inverted microscope. The morphology was analyzed using a dedicated OptaView 7 software (Opta-Tech, Warsaw, Poland).

[4] = HUVEC viability, WST-1 assay; format: cell-based, human; settings: human, HUVEC cells; WST-1, 24 h, % of control, mean ± SD (n = 6–8)
Method: As a third in vitro toxicity study in the human blood circulation system, the effects of FA, D1, and D2 on the viability of human umbilical vein endothelial cells (HUVECs; RRID CVCL_2959; Lonza, Italy; Cat. no. CC-2517) were determined using the WST-1 assay (Takara, Takara Bio Europe, Europe, Saint-Germain-en-Laye, France), according to the previously published protocol.[32] Briefly, the cells were cultured according to the manufacturer’s guidelines with the following ingredients: EGM-2-medium + bullet kit (Lonza, Clonetics, Italy), accutase (Sigma-Aldrich, Germany), and HEPES-buffered saline solution (Lonza, Basel, Switzerland). For the assay, the cells were seeded at the density of 7 500 HUVECs per well on 96-well plates and cultured for 24 h to obtain 70% confluency. Subsequently, the cells were treated with studied compounds in multiplicate (n = 6–8) at the concentration of 0.1–100 μM in the growth medium for 24 h (37 °C, 5% CO2). Cells with untreated growth medium represented 100% viability, whereas cells treated with medium containing 0.5% (v/v) methanol served as a negative control for drug solvent. After treating cells for 24 h, medium was removed, the cells were washed with the culture medium (100 μl/well), and 100 μL of WST-1 reagent dissolved in culture medium was added into each well. The plates were incubated at 37 °C with 5% CO2 for 2 h, after which absorbance values were measured at the 450 nm wavelength using a microplate reader (iMARK, Bio-Rad). Additionally, the effects of treatments on HUVEC morphology were examined microscopically using a phase-contrast Opta-Tech inverted microscope equipped with OptaView 7 software (Opta-Tech, Warsaw, Poland) for image analysis.

[5] = S9 subcellular fraction of kidney homogenate, mouse kidney S9, 50 μM, read-out: fu, kidney (%)
[6] = S9 subcellular fraction of liver homogenate, mouse liver S9, 50 μM, read-out: fu, liver (%)
[7] = S9 subcellular fraction of pancreas homogenate, mouse pancreas S9, 50 μM, read-out: fu, pancreas (%)

Row | fraction unbound at 4 h, 50 μM [1, 5] | fraction unbound at 4 h, 50 μM [1, 6] | fraction unbound at 4 h, 50 μM [1, 7] | unbound (free) portion, range over liver, kidney and pancreas [1] | effect on APTT (human plasma; 100 μM) | Compound | fu, plasma (%) [2] | hemolysis at 1 h, 100 µM [3] [%] | viability at 24 h, 50 µM [4] [%] | viability at 24 h, 100 µM [4] [%] | effect on INR (human plasma) | prothrombin time (PT) (human plasma; 100 μM, control 13.2 ± 1.3 s) [s]
1 | 0.469 ± 0.0593 | 0.425 ± 0.0544 | 0.28 ± 0.0147 | 28.02–46.85% | prolonged the APTT | COc1cc(C=CC(=O)NCc2cccc(CC(N)C(=O)O)c2)ccc1O (centres unmarked) [derivative 1] | 19.66–30.62 ^b % | 3.58 ± 0.69 | 89 ± 7.27 | 80.7 ± 4.26 |  | 
2 | 0.305 ± 0.0063 | 0.236 ± 0.0109 | 0.15 ± 0.0206 | 15.01–30.52% |  | COc1cc(/C=C/C(=O)Nc2cccc(C[C@H](N)C(=O)O)c2)ccc1O [derivative 2] | 8.37–9.01 ^b % | 1.97 ± 1.25 | 73.5 ± 14.7 | 60.3 ± 16.9 |  | 

Row | Compound | fraction unbound at 4 h, 50 μM [1, 5] | fraction unbound at 4 h, 50 μM [1, 6] | fraction unbound at 4 h, 50 μM [1, 7] | unbound (free) portion, range over liver, kidney and pancreas [1] | effect on APTT (human plasma; 100 μM) | fu, plasma (%) [2] | hemolysis at 1 h, 100 µM [3] [%] | viability at 24 h, 50 µM [4] [%] | viability at 24 h, 100 µM [4] [%] | effect on INR (human plasma) | prothrombin time (PT) (human plasma; 100 μM, control 13.2 ± 1.3 s) [s]
3 | COc1cc(C=CC(=O)O)ccc1O [ferulic acid, 4-hydroxy-3-methoxycinnamic acid] | 0.991 ± 0.105 | 0.849 ± 0.145 | 0.993 ± 0.0196 | 84.94–99.30% |  | 9.94–11.51 ^b % | 2.38 ± 1.84 |  | 62.6 ± 15 | increased INR | 15.5 ± 0.4
